Experimental data as given in patent publication US12370198B2, “Pharmaceutical compositions and methods for treating psychiatric disorders” (LA PHARMATECH INC., priority 2022, dated 2025).

How the values were obtained:
[1] = system: major depressive disorder (MDD); test: Clinical case treatment of patients with major depressive disorder; format: in vivo, human; details: for outcome of previous anti-depressant treatment of MDD: Example 2, person; for outcome of previous anti-depressant treatment of MDD / outcome of previous treatments of MDD symptoms: previous treatments; for outcome of previous treatments of MDD symptoms: Example 4, person; for improvement of MDD: alprazolam 5 mg for 2 weeks
Procedure: A patient having no insomnia symptom was diagnosed with major depressive disorder (MDD) showing persistent sadness, loneliness, helpless, and hapless. […] Then they were prescribed with a combination of ebastine (30 mg) and alprazolam (5 mg) for 4 weeks.
A patient with no insomnia symptom was diagnosed with major depressive disorder (MDD) with persistent sadness, lack of interest, and feeling lonely. […] Then they were treated with a combination of ebastine (30 mg) and alprazolam (0.5 mg) for 4 weeks from the second clinic visits.

[2] = system: premenstrual dysphoric disorder (PDD); test: Clinical case treatment of a patient with premenstrual dysphoric disorder; format: in vivo, human
Procedure: A patient with no insomnia symptom was diagnosed with premenstrual dysphoric disorder (PDD) with symptoms of persistent hopelessness, sadness, anxiety and frequent tearfulness on the first clinic visit and was provided with fluoxetine 40 mg for 3 weeks. […] Then the patient was prescribed with the combination of ebastine (20 mg) and alprazolam (2 mg) for 2 weeks.

[3] = system: mild chronic depression (MCD); test: Clinical case treatment of a patient with mild chronic depression; format: in vivo, human; details: Example 3
Procedure: The patient was prescribed with ebastine 30 mg for 3 weeks from the first clinic visit. […] Then they were prescribed with a combination of ebastine (10 mg) and alprazolam (0.5 mg) for a 4-week treatment.

[4] = system: generalized anxiety disorder (GAD); test: Clinical case treatment of patients with generalized anxiety disorder; format: in vivo, human; details: for improvement of GAD reported by patient: Example 1, person
Procedure: A patient was diagnosed with generalized anxiety disorder (GAD) and they had no complaints of having insomnia. […] Then they were treated with the combination of ebastine (20 mg) and alprazolam (1 mg) for 2 weeks. […] The inventors believe the composition of two mechanisms of actions provided a new solution for treating their GAD which could not be treated with alprazolam and the like alone.
A patient with no insomnia symptom order was diagnosed with GAD. The patient was treated with alprazolam (2 mg) for 2 weeks from their first clinic visit and alprazolam (4 mg) for 2 weeks from their second clinic visit. […] On the third clinic visit, the patient was prescribed with the combination of ebastine (10 mg) and alprazolam (4 mg). […] The inventors believe that the two compositions of two mechanisms of actions provided a new solution for treating their […] which could not be treated with other options.

REM sleep = details: background studies; cited from earlier work
[5] = system: release of prostaglandin D2 (PGD2) and leukotrienes C4/D4 (LTC4/D4); details: background statement; cited from earlier work
[6] = system: release of cytokines (GM-CSF, tumour necrosis factor-a, interleukin-8); details: background statement; cited from earlier work
allergic rhinitis = test: Clinical case treatment of allergic rhinitis; format: in vivo, human; details: Example 3, person; ebastine 30 mg for 3 weeks
Procedure: A patient with no insomnia symptom was having allergic rhinitis with itchy nose, mouth and eyes, frequent sneezing, watery eyes and coughing, and runny nose when they were diagnosed with mild chronic depression (MCD) but showing symptoms of sadness, lack of interest, loneliness and helpless, consistent frustration for 4 weeks with failed treatment history of allergic rhinitis. The patient was prescribed with ebastine 30 mg for 3 weeks from the first clinic visit. […] But their symptoms from MCD were persistent. […] Then they were prescribed with a combination of ebastine (10 mg) and alprazolam (0.5 mg) for a 4-week treatment.

CNCC[C@H](Oc1cccc2ccccc12)c1cccs1 [duloxetine]
outcome of previous anti-depressant treatment of MDD [1]: failed

CNCCC(Oc1ccc(C(F)(F)F)cc1)c1ccccc1 (centres unmarked) [fluoxetine]
improvement of PDD symptoms ([2]; Example 6, person, fluoxetine 40 mg for 3 weeks): no improvement | outcome of previous treatments of MDD symptoms [1]: failed to improve

Cc1nnc2n1-c1ccc(Cl)cc1C(c1ccccc1)=NC2 [alprazolam, 8-chloro-1-methyl-6-phenyl-4H-s-triazolo[4,3-a][1,4]benzodiazepine]
improvement of MCD symptoms ([3]; alprazolam 1 mg for 3 weeks): no improvement | improvement of PDD symptoms ([2]; Example 6, alprazolam (2 mg) for 2 weeks): failed to improve | improvement of GAD reported by patient ([4]; alprazolam 0.5 mg for 2 weeks): no improvement | improvement of GAD reported by patient ([4]; alprazolam 2 mg for 2 weeks): no improvement | improvement of GAD symptoms (anxiety, agitation, sweating, nausea, headaches) ([4]; Example 5, person, alprazolam (2 mg) for 2 weeks): failed to improve | improvement of GAD symptoms (anxiety, agitation, sweating, nausea, headaches) ([4]; Example 5, alprazolam (4 mg) for 2 weeks): failed to improve | improvement of MDD ([1]; Example 2): no improvement | improvement of MDD ([1]; Example 4): 20% | REM latency (REM sleep): increases | length of REM periods and frequency of REM burst activities (REM sleep): significantly decreases

CC(NC(C)(C)C)C(=O)c1cccc(Cl)c1 (centres unmarked) [bupropion]
outcome of previous anti-depressant treatment of MDD [1]: failed | outcome of previous treatments of MDD symptoms [1]: failed to improve

CC(C)(C(=O)O)c1ccc(C(=O)CCCN2CCC(OC(c3ccccc3)c3ccccc3)CC2)cc1 [carebastine]
release of PGD2 [5]: inhibits

CC(C)(C)c1ccc(C(=O)CCCN2CCC(OC(c3ccccc3)c3ccccc3)CC2)cc1 [ebastine, 4-diphenylmethoxy-1-[3-(4-tert-butylbenzoyl)-propyl]piperidine]
symptoms from MCD ([3]; ebastine 30 mg for 3 weeks): persistent | release of cytokines, including GM-CSF, tumour necrosis factor-a and interleukin-8 [6]: inhibited | recovery from allergic rhinitis (allergic rhinitis): complete recovery | anti-IgE-induced release of prostaglandin D2 (PGD2) and leukotrienes C4/D4 (LTC4/D4) [5]: significantly inhibits
